# Measurements published in patent US20240368552A1, “PRE-EPICARDIAL CELLS AND USES THEREOF” (The General Hospital Corporation, priority 2021, published 2024).
# Tests used:
# Format in all cases: cell-based, human
# [1] = tested on: PECs; experiment: Stimulation of epithelial-mesenchymal transition in PECs; details: for PECs CD90 positive: 6 days treatment, flow cytometry; for PEC phenotype (ZO1, WT1, morphology): immunofluorescence, extended culture / 6 days
# Procedure: Stimulation of epithelial-mesenchymal transition in PECs. Day 7 PECs were seeded at 100,000 cells/well on 24-well-plate pre-coated with 0.1% gelatin, and allowed to attach overnight in basal medium (BM) consisted of DMEM/F12 supplemented with […] of Albumax (Gibco, Grand Island, NY), 1×ITS (Gibco, Grand Island, NY), 60 μg/ml ascorbic acid (Sigma Aldrich, St. Louis, MO). 1 μM of ROCK inhibitor Y27632 (Tocris Bioscience, Bristol, UK) was added to facilitate PEC attachment for 24 h. Then, PECs were expanded to full confluency in the BM with 2 μM SB431542 (Stemgent, San Diego, CA) but without AlbuMAX II (Gibco, Grand Island, NY), for 3-4 days. EMT were initiated by adding 5 ng/ml TGFβ (R&D system, Minneapolis, MN) for the initial 3 days and 10 ng/ml bFGF (PeproTech, Rocky Hill, NJ) for the subsequent 3 days or just bFGF alone, up to 6 days. Controls were epicardial cells in basal medium or with addition of 2 μM SB431542 (Stemgent, San Diego, CA).
# (§1) Quantitative PCR. Cells were lysed with RT buffer and total RNA was purified using RNeasy® Plus Mini kit (Qiagen, Hilden, Germany) which was reverse transcribed to cDNA using Superscript IV VILO Master Mix (Gibco, Grand Island, NY) and ran on Bio-rad T100™ Thermal Cycler according to manufacturer's protocol. Quantitative PCR was performed on StepOnePlus Real-time PCR system (Applied Biosystems, Foster City, CA) after mixing cDNA with Taqman Gene Expression Master Mix (Cat #: 4369016) and gene Taqman probe (Applied Biosystems, Foster City, CA) which can be found in Table 1. All gene expressions were normalized to housekeeping gene beta-actin and presented as log 2fold change (delta-delta CT).
# Flow cytometry. Cells were dissociated using trypsin, pelleted by centrifugation at 300 g for 5 min, and fixed with Fixation/Permeabilization Solution Kit according to manufacturer's protocol (BD Biosciences, San Diego, CA). Cells were washed with 2 times of 10% BD Perm/Wash Buffer (BD Biosciences, San Diego, CA) to remove fixative prior to staining. Samples were incubated with primary antibody diluted in BD Perm/Wash Buffer at 4° C. for 45 min. To remove excessive primary antibody, samples were spun at 250 g for 5 min and washed once with Perm/Wash buffer prior to labelling with Alexa Fluor 488 secondary antibody (Molecular Probes Eugene, OR) at 1:500 for 30 min. All samples were washed once with BD Perm/Wash Buffer prior to analysis with BD Accuri, BD FACS LSR Flow Cytometer (BD Biosciences, San Diego, CA) or NovoCyte Flow Cytometer (ACEA Biosciences, San Diego, CA). All flow cytometric analyses were performed using FlowJo 10.5.0 software.
# Immunofluorescence labelling and microscopy (cells, spheres, aggregates). Cultured cells were fixed with cold methanol at 4° C. for 15 min, and then washed with PBS. CM-spheres, PEC-Spheres, and cardiac aggregates were fixed overnight with 4% paraformaldehyde, embedded in Histogel™ (Thermo Scientific, Kalamazoo, MI), dehydrated, and embedded in paraffin. Sections were cut at 5 μm, deparaffinized, and treated with a heat-mediated antigen retrieval technique that included a 20-min boilin 0.01 M citrate buffer (pH 7.0). Both cells and histological sections were labelled with primary antibodies (Table 1) overnight at 4° C. Donkey anti rabbit AlexaFluor 488 and donkey anti-mouse AlexaFluor 546 and 647 (Molecular Probes Eugene, OR) were used as secondary antibodies at 1:500 and nuclei were counterstained with DAPI (Sigma Aldrich, St. Louis, MO). All labelled cells were visualized using Nikon Eclipse Ti fluorescence microscope (Nikon Instruments, Melville, NY), and processed with NIS element imaging software or ImageJ.
# [2] = tested on: IGF2; experiment: Inhibition of RA signaling in PEC in transwell (IGF2 qPCR); details: 5 μM, 6 days, vs control without BMS
# Procedure: as §1
# Inhibition of RA signaling in PEC in Transwell: PECs were seeded at 2.5×10^5 cells/well in 24 well-plate while 2.5×10^5 cells VM were cultured in the transwell insert. Both cells were cultured using PECM:RPMI-INS medium, with […] (5 μM) only present in lower compartment with PECs, for 6 days. IGF2 RNA was harvested from PECs for qPCR analysis.
# [3] = tested on: hiPSC-derived CMs; experiment: Differentiation of ventricular-like CM population with BMS-189453; details: day 30, treated 96 h starting at day 3, vs control
# Procedure: as §1
# Differentiation of Ventricular-like CM population. Human iPS cells were maintained and differentiated to LPM with Stemolecule™ CHIR99021 for 48 h. BMS-189453 (1-2 μM, Sigma Aldrich, St. Louis, MO) was supplemented together with Stemolecule™ Wnt inhibitor IWP-4 (Stemgent, San Diego, CA) in RPMI-INS for 48 h starting day 3. Then, BMS-189453 treatment was continued after additional 48 h after withdrawal of Stemolecule™ Wnt inhibitor IWP-4 in RPMI-INS until day 9. Culture medium was then switched to RPMI supplemented with insulin containing B27 to further maintain the differentiated ventricular myocytes until use.
# [4] = tested on: ventricular-CMs; experiment: IGF signaling in PEC-induced ventricular-CM proliferation (IGF1R inhibition assay, IGF2 dose-response)
# [5] = tested on: hiPSCs (BJR-iPS cells); experiment: Lateral plate mesoderm (LPM) induction from hiPSCs with CHIR, flow cytometry and RT-PCR
# Procedure: HiPSC culture, maintenance and differentiation. Human BJR-iPS cells (hiPSCs) were obtained from Harvard Stem Cell Institute, and maintained in MTeSR medium (STEMCELL Technologies). hiPSCs were passaged with ReleaSR (STEMCELL Technologies, Cambridge, MA) and plated at 1:20 ratio every 7 days onto […] pre-coated with growth factor reduced (GFR)-Matrigel (Corning, Tewksbury, MA). Briefly, hiPSCs were seeded at 200,000 cells/cm^2 onto a GFR-Matrigel-coated plate and maintained in MTeSR medium for 4-5 days. To generate the lateral plate mesoderm (LPM), the cells were treated with 12 μM Stemolecule™ CHIR99021 (Stemgent, San Diego, CA) in differentiation basal medium consisting of RPMI medium supplemented with B27 without insulin (Gibco, Grand Island, NY) (RPMI-INS,) for 48 h. Then, the medium was replaced with RPMI-INS for 24 h. Next, the culture was incubated with 5 μM of Stemolecule™ Wnt inhibitor IWP-4 (Stemgent, San Diego, CA) in RPMI-INS for 48 hr before switching it back to RPMI-INS, for additional 48 hr. After that, the medium was changed to RPMI medium supplemented with insulin-containing B27, and refreshed every 2 days for long term maintenance. For PEC differentiation, LPM cells at day 3 were treated with RPMI-INS supplemented 50 ng/ml bone morphogenic protein (BMP) 4 (PeproTech, Rocky Hill, NJ), 5 ng/ml vascular endothelial growth factor (VEGF; PeproTech, Rocky Hill, NJ) and 4 μM retinoic acid (RA; Stemgent, San Diego, CA) in RPMI-INS and changed every 2 days for 96 hr. PECs were dissociated using collagenase I (Sigma Aldrich, St. Louis, MO) and 1×TrypLE Express Enzyme (Gibco, Grand Island, NY), and maintained in complete PEC medium (PECM) consisted of DMEM/F12 supplemented with 1×insulin-selenium-transferrin (ITS; Gibco, Grand Island, NY), 5 ng/ml VEGF (PeproTech, Rocky Hill, NJ), 10 μM retinol, 4 μM RA (Stemgent, San Diego, CA) and 60 μg/ml ascorbic acid (Sigma). For plating, 1 μM of ROCK inhibitor Y-27632 dihydrochloride (Tocris Bioscience, Bristol, UK) was added for 24 h to facilitate cell attachment, after which medium was switched to PECM. For PEC maintenance, differentiated PEC were passaged and seeded at 10,000/well of 24 well-plate and maintained using SB medium consisted of DMEM/F12 supplemented with 0.4 mg/ml of Albumax (Gibco, Grand Island, NY), 1×ITS (Gibco, Grand Island, NY), 60 μg/ml ascorbic acid (Sigma Aldrich, St. Louis, MO), with 2 μM TGFβ inhibitor SB431542 (Tocris Bioscience, Bristol, UK). […]
# Quantitative PCR. […] Quantitative PCR was performed on StepOnePlus Real-time PCR system (Applied Biosystems, Foster City, CA) after mixing cDNA with Taqman Gene Expression Master Mix (Cat #: 4369016) and gene Taqman probe (Applied Biosystems, Foster City, CA) which can be found in Table 1. […]
# [6] = 6 days, RT-PCR vs SB-treated PECs
# [7] = 48 h CHIR treatment, day 3, RT-PCR vs hiPSC
# [8] = day 3, 48 h CHIR treatment, flow cytometry
compound,measurement,setting,value
TGFβ,PECs CD90 positive,[1],28.7±3.5%
same,"ACTA2, DDR2 and POSTN expression",[1]; [6],significant increases
same,"PEC phenotype (ZO1, WT1, morphology)",[1],"ZO1 disarrangement, cell and nucleus enlargement, and WT1-expression loss"
"bFGF: bFGF growth factor (PeproTech), 10 ng/ml",PECs CD90 positive,[1],95.3±0.7%
same,"ACTA2, DDR2 and POSTN expression",[1]; [6],significant increases
same,SNAI1 expression,[1]; [6],upregulation
same,fibroblast markers TCF21 and VIM expression,[1]; [6],significant upregulation
same,"PEC phenotype (ZO1, WT1, morphology)",[1],"ZO1 disarrangement, cell and nucleus enlargement, and WT1-expression loss"
"CC1(C)CC=C(c2ccccc2)c2cc(/C=C/c3ccc(C(=O)O)cc3)ccc21 [BMS, BMS189453]",IGF2 expression in co-cultured PECs,[2],significantly reduced
same,ventricular genes MYH7 and MYL2 expression,[3],significantly upregulated
C[C@]1(O)C[C@@H](c2nc(-c3ccc4ccc(-c5ccccc5)nc4c3)c3c(N)nccn32)C1 [Linsitinib],cTnT+ EdU+ CMs,"[4]; treated with 1 μM, 3 days, PEC coculture",7.0±0.4%
"NC(=O)c1ccc(-c2nc(-c3ccc4c(c3)OCO4)c(-c3ccccn3)[nH]2)cc1 [SB, SB431542]",PECs CD90 positive,[1],1.1±0.1%
same,"PEC phenotype (ZO1, WT1, morphology)",[1],maintain the cuboidal epithelial phenotype with defined ZO1 expression
"Cc1c[nH]c(-c2cnc(NCCNc3ccc(C#N)cn3)nc2-c2ccc(Cl)cc2Cl)n1 [CHIR, CHIR99021]","pluripotency markers (OCT3/4, SOX2, NANOG) expression",[5]; [7],significant downregulation
same,"primitive streak, lateral plate mesoderm and cardiac progenitor marker expression",[5]; [7],significant upregulation
same,LPM progenitors expressing KDR,[5]; [8],88.0±3.6%
same,LPM progenitors expressing PDGFRA,[5]; [8],73.7±4.3%
IGF2: IGF2 protein added to ventricular CMs,cTnT+ EdU+ CMs,"[4]; IGF2 addition, dose-response",significantly increased
